Experimental data from paper PMC10804683, “Identification of the pyridoxal 5′‐phosphate allosteric site in human pyridox(am)ine 5′‐phosphate oxidase” (Protein Science : A Publication of the Protein Society, 2024).
Where a chain is given by its changes, count along the chain named. Several values for one entry are separate records, joined by “and”; a condition that tells them apart may be missing. Equal values may be shown once.

Legend:
human PNPO wild type = biological target: T1, human PNPO wild type (Homo sapiens, UniProt Q9NVS9); experiment: PLP inhibition kinetics of PNP oxidation, wild type; format: biochemical; parameters: a main form corresponding to the entire protein; made in house; host or cells: E. coli BL21(DE3); conditions: Na-HEPES pH 7.6, 2 μM enzyme, PLP 0–16 μM
T1 sequence (Q9NVS9 1-261): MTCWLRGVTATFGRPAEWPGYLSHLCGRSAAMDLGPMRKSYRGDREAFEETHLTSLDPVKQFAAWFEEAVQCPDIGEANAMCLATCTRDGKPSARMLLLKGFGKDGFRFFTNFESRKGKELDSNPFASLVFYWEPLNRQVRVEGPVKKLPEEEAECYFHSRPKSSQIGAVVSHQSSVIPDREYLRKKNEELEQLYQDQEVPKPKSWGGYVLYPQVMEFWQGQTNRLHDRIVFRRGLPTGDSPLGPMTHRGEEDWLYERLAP
Procedure: This is a general inhibition mechanism that takes into account the possibility of PLP binding to both the active and allosteric sites. PLP binding at the active site gives a complete, competitive inhibition, whereas PLP binding at the allosteric site yields a substrate‐enzyme‐PLP ternary complex that is still catalytically active, although k CAT is reduced by a coefficient whose value is around 0.15. A thorough inhibition kinetic characterization was carried out with the wild type, F48A, F48A/E50L/R258L, and F48A/E50L/H248N/R258L PNPO forms, so as to evaluate the effect of the variations on the allosteric properties of the enzyme. The initial velocity of PNP conversion into PLP was measured in Na‐HEPES buffer (in which PLP is allowed to accumulate) by varying substrate concentration at different, fixed exogenous PLP concentrations, using 2 μM enzyme. A series of saturation curves were obtained that were used to fit the Michaelis–Menten equation (Figure 5), acquiring apparent V MAX and K M values as a function of PLP concentration. […]
FIGURE 5 Characterization of PLP inhibition. Upper panels: The initial velocity of the reaction was measured with 2 μM wild type (a), and the F48A (b), F48A/E50L/R258L (c), and F48A/E50L/H248N/R258L (d) PNPO variants, varying PNP concentration while keeping exogenous PLP fixed at different concentrations (0, 0.25, 0.5, 1, 2, 4, 8, and 16 μM). […]

[1] = biological target: T2, human PNPO F48A/E50L/R258L variant (Homo sapiens, UniProt Q9NVS9, E50L/F48A/R258L); experiment: PLP binding by DSF, triple variant; conditions: 50 mM Na-HEPES pH 7.6, 2 μM enzyme
T2 construct: a main form corresponding to the entire protein; made in house; host or cells: E. coli BL21(DE3)
T2 sequence (Q9NVS9 1-261 F48A/E50L/R258L): T1 sequence (Q9NVS9 1-261) with F48A, E50L, R258L
Source text: PLP binding to PNPO can be detected and quantitatively measured using differential scanning fluorimetry (DSF) and also by measuring FMN fluorescence changes. We had previously attributed DSF changes to PLP binding at the active site, while FMN fluorescence changes were attributed to PLP binding at the allosteric site (Barile et al., [2019], [2020]). Previous experiments carried out with the PNPO R161C variant, affecting a residue that is essential for substrate binding and catalysis (and therefore also for PLP binding at the active site), confirms that DSF measurements only report PLP binding at the active site (Barile et al., [2021]; Table 1). […] We expected to observe no FMN fluorescence changes upon titration of the variants with PLP. However, this was not the case, and the dissociation constant values obtained by observing the FMN fluorescence emission were only up to threefold larger in the variants with respect to wild type PNPO (Figure 3). […] To check the second possibility, we measured intrinsic fluorescence changes of wild type and variant apo‐forms (i.e., without FMN) upon PLP titration. […]
FIGURE 2 DSF measurements with F48A (a), F48A/E50L/R258L (b), F48A/E50L/H248N/R258L (c), and 1‐31del PNPO variants in the presence of different PLP concentrations. Upper panels: Fluorescence change is expressed as fractional variation as a function of temperature. […]

Kd [1]: 6.28 µM and 6.3 µM
SMILES: Cc1ncc(COP(=O)(O)O)c(C=O)c1O [PLP, pyridoxal 5′‐phosphate]
type of inhibition of PNP oxidation by PLP (human PNPO wild type): typical hyperbolic increase of 1/V MAX and the parabolic increase of K M/V MAX
